# Biological target: T1, spliced XBP1 mRNA (target of IRE endonuclease) in MCF-7 cancer cells (Homo sapiens, UniProt O75460)
# T1 construct: tunicamycin ER stress; RT-PCR of spliced XBP1 mRNA (RNase domain activity)
# Assay: Spliced XBP1 mRNA Measurement Test (RT-PCR, tunicamycin-induced ER stress, MCF-7 cells)
# Type: cell-based
# Conditions: 1 hour pre-treatment with compound, 2 μg/mL tunicamycin 6 or 24 hours, spliced XBP1 corrected by total XBP1, read-out: XBP1 mRNA (IC50)
# Experimental: A reverse transcription polymerase chain reaction is a test method in which RNA is extracted from cells, reverse transcriptase is used to make cDNA, and relative mRNA expression level is measured through a polymerase chain reaction.
# Briefly, MCF-7 cells were seeded in a 12-well plate and cultured in an incubator including 5% CO2 for one day. On the next day, compounds, which were 10-fold serially diluted from 10,000 nM, were pre-treated for 1 hour, and then, treated with 2 μg/mL tunicamycin for 6 or 24 hours to induce endoplasmic reticulum stress, followed by cell lysis to obtain RNA. RNA was subjected to the procedure of RNeasy Kits (Qiagen, 74106), and 5 μg of RNA sample was dissolved in a sample including reverse transcriptase and dNTP, and reverse transcription reaction was performed with a thermal cycler. The amount of mRNA of each of spliced XBP1 and total XBP1 was measured by a polymerase chain reaction through real time PCR by mixing each cDNA sample with a PCR reaction mixture including a primer pair capable of binding specifically to each target and SYBR green dye. The expression level of spliced XBP1 was corrected by the total expression level of XBP1, and the relative expression levels of spliced XBP1 between samples were compared and analyzed.
# T1 sequence (O75460 19-977): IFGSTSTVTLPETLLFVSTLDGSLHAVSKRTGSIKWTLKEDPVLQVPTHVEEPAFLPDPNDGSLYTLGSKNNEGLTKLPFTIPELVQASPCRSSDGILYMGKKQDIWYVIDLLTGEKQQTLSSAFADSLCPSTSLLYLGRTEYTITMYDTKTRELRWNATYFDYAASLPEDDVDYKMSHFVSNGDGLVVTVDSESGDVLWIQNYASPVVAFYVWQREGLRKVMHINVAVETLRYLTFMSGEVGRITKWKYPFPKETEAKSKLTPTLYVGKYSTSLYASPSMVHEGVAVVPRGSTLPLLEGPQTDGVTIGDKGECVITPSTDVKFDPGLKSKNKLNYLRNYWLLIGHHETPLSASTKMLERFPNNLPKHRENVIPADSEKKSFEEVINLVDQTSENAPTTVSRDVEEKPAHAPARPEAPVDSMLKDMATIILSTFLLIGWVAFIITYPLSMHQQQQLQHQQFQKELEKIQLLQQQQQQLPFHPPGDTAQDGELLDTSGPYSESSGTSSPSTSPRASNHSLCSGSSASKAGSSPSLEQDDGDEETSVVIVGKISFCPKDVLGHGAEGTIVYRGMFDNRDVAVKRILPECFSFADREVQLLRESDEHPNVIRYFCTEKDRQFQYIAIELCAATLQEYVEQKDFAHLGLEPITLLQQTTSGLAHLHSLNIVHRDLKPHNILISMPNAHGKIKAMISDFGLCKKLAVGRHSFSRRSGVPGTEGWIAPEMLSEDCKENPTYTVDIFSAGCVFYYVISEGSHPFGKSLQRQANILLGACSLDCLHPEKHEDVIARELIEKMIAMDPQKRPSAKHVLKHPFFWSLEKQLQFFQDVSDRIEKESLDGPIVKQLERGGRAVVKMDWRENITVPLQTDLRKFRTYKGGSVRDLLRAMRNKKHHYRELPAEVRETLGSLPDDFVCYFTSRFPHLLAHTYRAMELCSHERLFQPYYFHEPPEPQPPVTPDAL
row,IC50,SMILES
1,< 100 nM,"Cc1c(CC(=O)N2CCOCC2)c(=O)oc2c(C=O)c(O)c3c(c12)CCO3 [Example 1, 4-hydroxy-9-methyl-8-(2-morpholino-2-oxoethyl)-7-oxo-1,7-dihydro-2H-furo[3,2-f]chromene-5-carbaldehyde]"
2,100 to 200 nM,"Cc1c(CC(=O)N2CCOCC2)c(=O)oc2c(C=O)c(O)c3c(c12)OCO3 [Example 2, 4-hydroxy-9-methyl-8-(2-morpholino-2-oxoethyl)-7-oxo-7H-[1,3]dioxolo[4,5-f]chromene-5-carbaldehyde]"
3,< 100 nM,"Cc1c(CC(=O)N2CCOCC2)c(=O)oc2c(C=O)c(O)c3c(c12)CCCO3 [Example 3, 6-hydroxy-1-methyl-2-(2-morpholino-2-oxoethyl)-3-oxo-3,8,9,10-tetrahydropyrano[3,2-f]chromene-5-carbaldehyde]"
4,> 200 nM,"Cc1c(CC(=O)N2CCC(C)CC2)c(=O)oc2c(C=O)c(O)c3c(c12)CCCO3 [Example 4, 6-hydroxy-1-methyl-2-(2-(4-methylpiperidin-1-yl)-2-oxoethyl)-3-oxo-3,8,9,10-tetrahydropyrano[3,2-f]chromene-5-carbaldehyde]"
5,< 100 nM,"Cc1c(CC(=O)N2CCCC2)c(=O)oc2c(C=O)c(O)c3c(c12)CCCO3 [Example 5, 6-hydroxy-1-methyl-3-oxo-2-(2-oxo-2-(pyrrolidin-1-yl)ethyl)-3,8,9,10-tetrahydropyrano[3,2-f]chromene-5-carbaldehyde]"
6,< 100 nM,"CCNC(=O)Cc1c(C)c2c3c(c(O)c(C=O)c2oc1=O)OCC3 [Example 8, N-ethyl-2-(5-formyl-4-hydroxy-9-methyl-7-oxo-1,7-dihydro-2H-furo[3,2-f]chromen-8-yl)acetamide]"
7,< 100 nM,"CCN(CC)C(=O)Cc1c(C)c2c3c(c(O)c(C=O)c2oc1=O)OCC3 [Example 9, N,N-diethyl-2-(5-formyl-4-hydroxy-9-methyl-7-oxo-1,7-dihydro-2H-furo[3,2-f]chromen-8-yl)acetamide]"
8,< 100 nM,"Cc1c(CC(=O)N2CCC(F)(F)C2)c(=O)oc2c(C=O)c(O)c3c(c12)CCCO3 [Example 10, 2-(2-(3,3-difluoropyrrolidin-1-yl)-2-oxoethyl)-6-hydroxy-1-methyl-3-oxo-3,8,9,10-tetrahydropyrano[3,2-f]chromene-5-carbaldehyde]"
9,< 100 nM,"Cc1c(CC(=O)N2CCC(C)C2)c(=O)oc2c(C=O)c(O)c3c(c12)CCCO3 (stereo not shown) [Example 11, 6-hydroxy-1-methyl-2-(2-(3-methylpyrrolidin-1-yl)-2-oxoethyl)-3-oxo-3,8,9,10-tetrahydropyrano[3,2-f]chromene-5-carbaldehyde]"
10,100 to 200 nM,"Cc1c(CC(=O)N2CCC(C)(C)C2)c(=O)oc2c(C=O)c(O)c3c(c12)CCCO3 [Example 12, 2-(2-(3,3-dimethylpyrrolidin-1-yl)-2-oxoethyl)-6-hydroxy-1-methyl-3-oxo-3,8,9,10-tetrahydropyrano[3,2-f]chromene-5-carbaldehyde]"
11,100 to 200 nM,"Cc1c(CC(=O)N2CCC2)c(=O)oc2c(C=O)c(O)c3c(c12)CCCO3 [Example 13, 2-(2-(azetidin-1-yl)-2-oxoethyl)-6-hydroxy-1-methyl-3-oxo-3,8,9,10-tetrahydropyrano[3,2-f]chromene-5-carbaldehyde]"
12,100 to 200 nM,"COC1CCN(C(=O)Cc2c(C)c3c4c(c(O)c(C=O)c3oc2=O)OCCC4)C1 (stereo not shown) [Example 14, 6-hydroxy-2-(2-(3-methoxypyrrolidin-1-yl)-2-oxoethyl)-1-methyl-3-oxo-3,8,9,10-tetrahydropyrano[3,2-f]chromene-5-carbaldehyde]"
13,100 to 200 nM,"COC1CN(C(=O)Cc2c(C)c3c4c(c(O)c(C=O)c3oc2=O)OCCC4)C1 [Example 15, 6-hydroxy-2-(2-(3-methoxyazetidin-1-yl)-2-oxoethyl)-1-methyl-3-oxo-3,8,9,10-tetrahydropyrano[3,2-f]chromene-5-carbaldehyde]"
14,> 200 nM,"Cc1c(CC(=O)N2CCC(F)C2)c(=O)oc2c(C=O)c(O)c3c(c12)CCCO3 (stereo not shown) [Example 16, 2-(2-(3-fluoropyrrolidin-1-yl)-2-oxoethyl)-6-hydroxy-1-methyl-3-oxo-3,8,9,10-tetrahydropyrano[3,2-f]chromene-5-carbaldehyde]"
15,< 100 nM,"CCNC(=O)Cc1c(C)c2c3c(c(O)c(C=O)c2oc1=O)OCCC3 [Example 17, N-ethyl-2-(5-formyl-6-hydroxy-1-methyl-3-oxo-3,8,9,10-tetrahydropyrano[3,2-f]chromen-2-yl)acetamide]"
16,> 200 nM,"CCc1c(CC(=O)N2CCCC2)c(=O)oc2c(C=O)c(O)c3c(c12)CCCO3 [Example 18, 1-ethyl-6-hydroxy-3-oxo-2-(2-oxo-2-(pyrrolidin-1-yl)ethyl)-3,8,9,10-tetrahydropyrano[3,2-f]chromene-5-carbaldehyde]"
17,100 to 200 nM,"Cc1c(CC(=O)N2CC(F)C2)c(=O)oc2c(C=O)c(O)c3c(c12)CCCO3 [Example 19, 2-(2-(3-fluoroazetidin-1-yl)-2-oxoethyl)-6-hydroxy-1-methyl-3-oxo-3,8,9,10-tetrahydropyrano[3,2-f]chromene-5-carbaldehyde]"
18,100 to 200 nM,"Cc1c(CC(=O)N2CCC3(CC3)C2)c(=O)oc2c(C=O)c(O)c3c(c12)CCCO3 [Example 20, 6-hydroxy-1-methyl-3-oxo-2-(2-oxo-2-(5-azaspiro[2.4]heptan-5-yl)ethyl)-3,8,9,10-tetrahydropyrano[3,2-f]chromene-5-carbaldehyde]"
19,> 200 nM,"Cc1c(CC(=O)N2CCCCC2)c(=O)oc2c(C=O)c(O)c3c(c12)CCCO3 [Example 21, 6-hydroxy-1-methyl-3-oxo-2-(2-oxo-2-(piperidin-1-yl)ethyl)-3,8,9,10-tetrahydropyrano[3,2-f]chromene-5-carbaldehyde]"
20,> 200 nM,"Cc1c(CC(N)=O)c(=O)oc2c(C=O)c(O)c3c(c12)CCCO3 [Example 22, 2-(5-formyl-6-hydroxy-1-methyl-3-oxo-3,8,9,10-tetrahydropyrano[3,2-f]chromen-2-yl)acetamide]"
21,100 to 200 nM,"CC(C)c1c(CC(=O)N2CCCC2)c(=O)oc2c(C=O)c(O)c3c(c12)CCCO3 [Example 23, 6-hydroxy-1-isopropyl-3-oxo-2-(2-oxo-2-(pyrrolidin-1-yl)ethyl)-3,8,9,10-tetrahydropyrano[3,2-f]chromene-5-carbaldehyde]"
22,< 100 nM,"COCCNC(=O)Cc1c(C)c2c3c(c(O)c(C=O)c2oc1=O)OCCC3 [Example 24, 2-(5-formyl-6-hydroxy-1-methyl-3-oxo-3,8,9,10-tetrahydropyrano[3,2-f]chromen-2-yl)-N-(2-methoxyethyl)acetamide]"
23,< 100 nM,"CCN(CC)C(=O)Cc1c(C)c2c3c(c(O)c(C=O)c2oc1=O)OCCC3 [Example 25, N,N-diethyl-2-(5-formyl-6-hydroxy-1-methyl-3-oxo-3,8,9,10-tetrahydropyrano[3,2-f]chromen-2-yl)acetamide]"
24,> 200 nM,"CC(=O)N1CCN(C(=O)Cc2c(C)c3c4c(c(O)c(C=O)c3oc2=O)OCCC4)CC1 [Example 26, 2-(2-(4-acetylpiperazin-1-yl)-2-oxoethyl)-6-hydroxy-1-methyl-3-oxo-3,8,9,10-tetrahydropyrano[3,2-f]chromene-5-carbaldehyde]"
25,< 100 nM,"Cc1c(CC(=O)N2CC3CC2CO3)c(=O)oc2c(C=O)c(O)c3c(c12)CCCO3 (stereo not shown) [Example 27, 2-(2-(2-oxa-5-azabicyclo[2.2.1]heptan-5-yl)-2-oxoethyl)-6-hydroxy-1-methyl-3-oxo-3,8,9,10-tetrahydropyrano[3,2-f]chromene-5-carbaldehyde]"
26,100 to 200 nM,"Cc1c(CC(=O)N2CCSCC2)c(=O)oc2c(C=O)c(O)c3c(c12)CCCO3 [Example 28, 6-hydroxy-1-methyl-3-oxo-2-(2-oxo-2-thiomorpholinoethyl)-3,8,9,10-tetrahydropyrano[3,2-f]chromene-5-carbaldehyde]"
27,> 200 nM,"Cc1c(CC(=O)NCCN2CCOCC2)c(=O)oc2c(C=O)c(O)c3c(c12)CCCO3 [Example 29, 2-(5-formyl-6-hydroxy-1-methyl-3-oxo-3,8,9,10-tetrahydropyrano[3,2-f]chromen-2-yl)-N-(2-morpholinoethyl)acetamide]"
28,< 100 nM,"Cc1c(CC(=O)N2CCSC2)c(=O)oc2c(C=O)c(O)c3c(c12)CCCO3 [Example 30, 6-hydroxy-1-methyl-3-oxo-2-(2-oxo-2-(thiazolidin-3-yl)ethyl)-3,8,9,10-tetrahydropyrano[3,2-f]chromene-5-carbaldehyde]"
29,> 200 nM,"Cc1c(CC(=O)N2CCNCC2)c(=O)oc2c(C=O)c(O)c3c(c12)CCCO3 [Example 31, 6-hydroxy-1-methyl-3-oxo-2-(2-oxo-2-(piperazin-1-yl)ethyl)-3,8,9,10-tetrahydropyrano[3,2-f]chromene-5-carbaldehyde]"

# Same assay, conditions: read-out: XBP1 mRNA (IC50), 1 hour pre-treatment with compound, 2 μg/mL tunicamycin 6 or 24 hours, spliced XBP1 corrected by total XBP1
row,SMILES,IC50
1,"Cc1c(CC(=O)N2CCN(C)CC2)c(=O)oc2c(C=O)c(O)c3c(c12)CCCO3 [Example 6, 6-hydroxy-1-methyl-2-(2-(4-methylpiperazin-1-yl)-2-oxoethyl)-3-oxo-3,8,9,10-tetrahydropyrano[3,2-f]chromene-5-carbaldehyde]",< 100 nM
2,"Cc1c(CC(=O)N2CCN(C(C)C)CC2)c(=O)oc2c(C=O)c(O)c3c(c12)CCCO3 [Example 7, 6-hydroxy-2-(2-(4-isopropylpiperazin-1-yl)-2-oxoethyl)-1-methyl-3-oxo-3,8,9,10-tetrahydropyrano[3,2-f]chromene-5-carbaldehyde]",100 to 200 nM

# Source: patent US20260345623A1, “NOVEL […] HETEROCYCLIC CARBALDEHYDE COMPOUND AND PHARMACEUTICAL COMPOSITION, CONTAINING SAME, FOR IRE1alpha INHIBITION” (HANMI PHARM. CO., LTD., priority 2022, published 2026)
